Experimental data published in US20140045805A1, “Fragrance Compositions and Other Compositions Which Contain Naturally Occurring Substances Found in Corals” (priority 2007, published 2014).

Test system: healthy volunteers (men and women)
Assay: Physiologic parameters (electrophysiology) after nasal exposure
Type: in vivo, human
Set-up: Mean MA, BT (body temperature) / Mean MA, EMG (electromyogram) / Mean MA, BR (blinking reflex) / Mean MA, EEG-A (alpha cortical activity) / Mean MA, EEG-B (beta cortical activity) / Mean MA, EEG-T (theta cortical activity) / Mean MA, EDA (electrodermal activity): unit not given here
Settings: for Mean MA, BR (blinking reflex) / Mean MA, BT (body temperature) / Mean MA, EDA (electrodermal activity) / Mean MA, EEG-A (alpha cortical activity) / Mean MA, EEG-B (beta cortical activity) / Mean MA, EEG-T (theta cortical activity) / Mean MA, EMG (electromyogram) / Mean MA, HR (heart rate) / Mean MA, RR (respiration rate): 12 ng/20 min airborne nasal; for % Change MA, BR (blinking reflex) / % Change MA, EDA (electrodermal activity) / % Change MA, EEG-A (alpha cortical activity) / % Change MA, EEG-B (beta cortical activity) / % Change MA, EEG-T (theta cortical activity) / % Change MA, EMG (electromyogram) / % Change MA, HR (heart rate) / % Change MA, RR (respiration rate): 12 ng, vs baseline-2
Method: We assessed the resulting physiological responses and behavioral changes induced by nasal exposure to 12 ng pregna-5,20-dien-3β-ol in 76 volunteers (38 women and 38 men), age 18 to 46 (Table 1) using a placebo-controlled, single blind and crossover study design. The items of the modified DABS-70 were rearranged during consecutive administrations, in order to minimize the effect of learning.
Upon completion of the first DABS-70, each subject was invited to rest supine in a comfortable medical bed in a quiet room and several non-invasive electrode leads and transducers were positioned on the surface skin of the arms, face and skull to help measure physiologic parameters (FIG. 4). A conventional grounding electrode and a reference electrode lead were positioned on the surface skin of the mastoid process and the right ear lobe respectively, with the aid of hypoallergenic conductive paste. Other non-invasive standard electrode-leads and transducers were used for recording the following physiologic parameters: • Electrocardiogram (EKG), standard bipolar I. • Electropneumogram (EPG), strain gauge around lower thorax. • Electrodermal activity (EDA), palm surface of 3rd and 4th finger (right hand). • Blinking reflex (BR), upper and lower left eye-lid. • Electromyogram (EMG), bilaterally in chin area. • Body temperature (BT), mini-thermistor probe in external ear canal. • Electroencephalogram (EEG), CzA2 and T4A2 from the […] International EEG electrode placement chart.
During the course of a recording session, physiologic readings were performed in four consecutive instances, before and after randomized administration of active substance or control (FIG. 4): PHYS-1 recording, starting 5 minutes before the first randomized dosing; PHYS-2, starting 15 minutes after administration of the first randomized dosing; PHYS-3, starting 5 minutes before administration of the second randomized dosing; and PHYS-4 starting 15 minutes after administration of the second randomized dosing.
All physiological recordings were pre-amplified and digitized (Biopac Systems), and continuously computer monitored and stored (Macintosh G3), for further off-line processing and analysis (for a detailed explanation see Monti-Bloch et al, 1994, 1998).
Active substance (pregna-5,20-dien-3β-ol) and control were freshly prepared on 0.7 cm×10 cm perfumery grade smelling strips 24 hours before the experiment. A perfumery grade smelling strip was positioned on the upper lip of the subject for delivery of control or active substance to the nasal passages for a period of 20 minutes. Each breath carried vapors of pregna-5,20-dien-3β-ol or control (air) from the paper strip to the nasal passages.
Perfumery grade smelling strips containing either pregna-5,20-dien-3β-ol or control were prepared as follows: 100 μl of stock solution containing 100 mg pregna-5,20-dien-3β-ol/10 mL ethanol (95%) was added to a clean paper strip. Ethanol was allowed to evaporate overnight in a clean fume hood, and 1 mg of dry crystals of pregna-5,20-dien-3β-ol remained embedded in the dried perfumery grade smelling strip. Control was a perfumery grade smelling strip prepared following the same procedure but the solution was devoid of active substance.
The following assumptions were used to calculate the quantity of pregna-5,20-dien-3β-ol delivered to the nasal passages during a study session: a) the quantity of pregna-5,20-dien-3β-ol arriving to the nasal passages with each breath is ≈40 pg (determined as described below); b) the average respiratory rate at rest in men and women is ≈15 breaths per minute; and c) the subject was exposed to pregna-5,20-dien-3β-ol for 20 min during the entire study session. The total calculated quantity of pregna-5,20-dien-3β-ol delivered to the nasal passages over 20 min (exposure during the study session) was calculated as follows: 40 pg/breath×15 breaths/min×20 min=12000 pg=12 ng. […]

[1] = men, listed as Pregna-5,20-dien-3β-ol
[2] = women, listed as Pregna-5,20-dien-3β-ol

`C=C[C@H]1CC[C@H]2[C@@H]3CC=C4C[C@@H](O)CC[C@]4(C)[C@H]3CC[C@]12C` [pregna-5,20-dien-3β-ol, Pregna-5,20-dien-3β-ol] was tested, and the “Mean MA, BR (blinking reflex)” value (men) was 25.970, the “Mean MA, BT (body temperature)” value (men) was −0.011 and the “Mean MA, EDA (electrodermal activity)” value (men) was 3.467. The “Mean MA, EEG-A (alpha cortical activity)” value (men) was 29.613, the “Mean MA, EEG-B (beta cortical activity)” value (men) was 57.853 and the “Mean MA, EEG-T (theta cortical activity)” value (men) was 17.630. The “Mean MA, EMG (electromyogram)” value (men) was 20.067, the “Mean MA, HR (heart rate)” value (men) was 66.323 and the “Mean MA, RR (respiration rate)” value (men) was 13.133. The “% Change MA, BR (blinking reflex)” value (men) was −22.392%, the “% Change MA, EDA (electrodermal activity)” value (men) was 44.458% and the “% Change MA, EEG-A (alpha cortical activity)” value (men) was 2.798%. For the same molecule, the “% Change MA, EEG-B (beta cortical activity)” value (“% Change MA, EEG-B” below) (men) was −13.691%, the “% Change MA, EEG-T (theta cortical activity)” value (men) was 14.036% and the “% Change MA, EMG (electromyogram)” value (men) was 64.524%. For the same molecule, the “% Change MA, HR (heart rate)” value (men) was −2.609%, the “% Change MA, RR (respiration rate)” value (men) was −19.097% and the “% Change MA, EEG-A (alpha cortical activity)” value [1] was “did not have a significant effect”. For the same molecule, the “% Change MA, EEG-B” value [1] was “did not have a significant effect”, the “% Change MA, HR (heart rate)” value [1] was −2.6% and the “Mean MA, BR (blinking reflex)” value (women) was 28.483. The “Mean MA, BT (body temperature)” value (women) was 0.064, the “Mean MA, EDA (electrodermal activity)” value (women) was 3.379 and the “Mean MA, EEG-A (alpha cortical activity)” value (women) was 27.724. For the same molecule, the “Mean MA, EEG-B (beta cortical activity)” value (women) was 61.069, the “Mean MA, EEG-T (theta cortical activity)” value (women) was 17.897 and the “Mean MA, EMG (electromyogram)” value (women) was 25.276. The “Mean MA, HR (heart rate)” value (women) was 64.828, the “Mean MA, RR (respiration rate)” value (women) was 13.379 and the “% Change MA, BR (blinking reflex)” value (women) was −31.859%. The “% Change MA, EDA (electrodermal activity)” value (women) was 71.784%, the “% Change MA, EEG-A (alpha cortical activity)” value (women) was −14.871% and the “% Change MA, EEG-B” value (women) was −1.023%. For the same molecule, the “% Change MA, EEG-T (theta cortical activity)” value (women) was 24.001%, the “% Change MA, EMG (electromyogram)” value (women) was 55.545% and the “% Change MA, HR (heart rate)” value (women) was −3.000%. For the same molecule, the “% Change MA, RR (respiration rate)” value (women) was −16.030%, the “% Change MA, EEG-A (alpha cortical activity)” value [2] was “did not have a significant effect” and the “% Change MA, EEG-B” value [2] was “did not have a significant effect”. For the same molecule, the “% Change MA, HR (heart rate)” value [2] was −3.0% and the “% Change MA, RR (respiration rate)” value [2] was −16.03%.
